Source: patent publication US7759345B2, “Antitumoral derivatives of ET-743” (priority 2001, dated 2010)
Where two headings read alike, the source gives them in different places.

Legend:
[1] = test system: P-388; assay: Inhibition of cell growth by counting cells, P-388; type: cell-based, mouse; conditions: Mus musculus, P388, 72 h, read-out: IC50 (molar) P-388
Outline: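 Mouse P-388 lymphoid neoplasm suspension cells seeded at 1×10^4 cells/well in EMEM 5% FCS containing graded sample concentrations, in duplicate alongside drug-free growth controls. Cells counted by Coulter counter; % growth vs untreated gives dose-response curves, IC50 = concentration producing 50% growth inhibition.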

[2] = test system: A-549; assay: Inhibition of cell growth by counting cells, A-549; type: cell-based, human; conditions: Homo sapiens, A549, 72 h, read-out: IC50 (molar) A-549
Outline: (§1)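 Human tumor cells were seeded at 1×10^4 cells per well in EMEM with 5% FCS containing graded compound concentrations, in duplicate, and incubated three days at 37° C, 5% CO2. Cells were then trypsinized and counted electronically; IC50 came from dose-response curves of percent growth versus drug-free controls.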

[3] = test system: HT-29; assay: Inhibition of cell growth by counting cells, HT-29; type: cell-based, human; conditions: Homo sapiens, HT-29, 72 h, read-out: IC50 (molar) HT-29
Outline: as §1

[4] = test system: MEL-28; assay: Inhibition of cell growth by counting cells, MEL-28; type: cell-based, human; conditions: Homo sapiens, SK-MEL-28, 72 h, read-out: IC50 (molar) MEL-28
Outline: as §1

[5] = test system: DU-145; assay: Inhibition of cell growth by counting cells, DU-145; type: cell-based, human; conditions: Homo sapiens, DU-145, 72 h, read-out: IC50 (molar) DU-145
Outline: as §1

SMILES	IC50 ([1]; three days of incubation)	IC50 ([2]; three days of incubation)	IC50 ([3]; three days of incubation)	IC50 ([4]; three days of incubation)	IC50 ([5]; three days of incubation)	IC50 [1]	IC50 [2]	IC50 [3]	IC50 [4]	IC50 [5]
CCCCCCCCCCCCCCCC(=O)Oc1c(C)c2c(c3c1[C@H]1SC[C@]4(NCCc5cc(OC(=O)OC(C)(C)C)c(OC)cc54)C(=O)OC[C@@H]3N3C1[C@H]1c4c(cc(C)c(OC)c4O)C[C@@H]([C@@H]3C#N)N1C)OCO2 (stereo partly drawn) [Compound 121]	469 nM	469 nM	469 nM	469 nM	469 nM					
CCCCCCCCCCCCCCCC(=O)Oc1c(C)c2c(c3c1[C@H]1SC[C@]4(NCCc5cc(OC(=O)OC(C)(C)C)c(OC)cc54)C(=O)OC[C@@H]3N3C1[C@H]1c4c(cc(C)c(OC)c4OC(=O)CCCCCCCCCCCCCCC)C[C@@H]([C@@H]3C#N)N1C)OCO2 (stereo partly drawn) [Compound 122]	830 nM	830 nM	830 nM	830 nM	830 nM					
COc1cc2c(cc1OC(=O)OC(C)(C)C)CCN[C@]21CS[C@@H]2c3c(OCc4ccccc4)c(C)c4c(c3[C@H](COC1=O)N1C2[C@H]2c3c(cc(C)c(OC)c3O)C[C@@H]([C@@H]1C#N)N2C)OCO4 (stereo partly drawn) [Compound 134]						0.544 nM	0.544 nM	0.544 nM	0.544 nM	0.544 nM
COc1cc2c(cc1OC(=O)OC(C)(C)C)CCN[C@]21CS[C@@H]2c3c(OCc4ccccc4)c(C)c4c(c3[C@H](COC1=O)N1C2[C@H]2c3c(cc(C)c(OC)c3OCc3ccccc3)C[C@@H]([C@@H]1C#N)N2C)OCO4 (stereo partly drawn) [Compound 135]						4.96 nM	4.96 nM	4.96 nM	4.96 nM	4.96 nM
COc1cc2c(cc1O)CCN[C@]21CS[C@@H]2c3c(O)c(C)c4c(c3[C@H](COC1=O)N1C2[C@H]2c3c(cc(C)c(OC)c3O)C[C@@H]([C@@H]1C#N)N2C)OCO4 (stereo partly drawn) [Compound 136]	0.137 nM	0.137 nM	0.137 nM	0.137 nM	0.137 nM					
COc1cc2c(cc1O)CCN[C@]21CS[C@@H]2c3c(OC(=O)/C=C/c4ccccc4)c(C)c4c(c3[C@H](COC1=O)N1C2[C@H]2c3c(cc(C)c(OC)c3O)C[C@@H]([C@@H]1C#N)N2C)OCO4 (stereo partly drawn) [Compound 137]	0.117 nM	0.117 nM	0.117 nM	0.117 nM	0.117 nM					
CCCCCCCC(=O)Oc1c(C)c2c(c3c1[C@H]1SC[C@]4(NCCc5cc(O)c(OC)cc54)C(=O)OC[C@@H]3N3C1[C@H]1c4c(cc(C)c(OC)c4O)C[C@@H]([C@@H]3C#N)N1C)OCO2 (stereo partly drawn) [Compound 144]	1.17 nM	1.17 nM	1.17 nM	1.17 nM	1.17 nM					
CCCCCCCCCCCCCCCC(=O)Oc1c(C)c2c(c3c1[C@H]1SC[C@]4(NCCc5cc(O)c(OC)cc54)C(=O)OC[C@@H]3N3C1[C@H]1c4c(cc(C)c(OC)c4O)C[C@@H]([C@@H]3C#N)N1C)OCO2 (stereo partly drawn) [Compound 146]	103 nM	103 nM	103 nM	103 nM	103 nM					
COc1cc2c(cc1O)CCN[C@]21CS[C@@H]2c3c(OC(=O)C(F)(F)F)c(C)c4c(c3[C@H](COC1=O)N1C2[C@H]2c3c(cc(C)c(OC)c3O)C[C@@H]([C@@H]1C#N)N2C)OCO4 (stereo partly drawn) [Compound 159]	1.37 nM	1.37 nM	1.37 nM	1.37 nM	1.37 nM					
CCCCCCCC(=O)Oc1c(C)c2c(c3c1[C@H]1SC[C@]4(NCCc5cc(O)c(OC)cc54)C(=O)OC[C@@H]3N3C1[C@H]1c4c(cc(C)c(OC)c4O)C[C@@H]([C@@H]3O)N1C)OCO2 (stereo partly drawn) [Compound 168]	0.591 nM	0.591 nM	0.591 nM	0.591 nM	0.591 nM					
COc1cc2c(cc1OC(C)=O)CCN[C@]21CS[C@@H]2c3c(OC(C)=O)c(C)c4c(c3[C@H](COC1=O)N1C2[C@H]2c3c(cc(C)c(OC)c3O)C[C@@H]([C@@H]1C#N)N2C(=O)OC(C)(C)C)OCO4 (stereo partly drawn) [Compound 191]	1.11 nM	1.11 nM	1.11 nM	1.11 nM	1.11 nM					
CCCC(=O)Oc1cc2c(cc1OC)[C@@]1(CS[C@@H]3c4c(OC(C)=O)c(C)c5c(c4[C@H](COC1=O)N1C3[C@H]3c4c(cc(C)c(OC)c4O)C[C@@H]([C@@H]1C#N)N3C(=O)OC(C)(C)C)OCO5)NCC2 (stereo partly drawn) [Compound 192]	5.39 nM	5.39 nM	5.39 nM	5.39 nM						5.39 nM
COc1cc2c(cc1OC(=O)/C=C/c1ccccc1)CCN[C@]21CS[C@@H]2c3c(OC(C)=O)c(C)c4c(c3[C@H](COC1=O)N1C2[C@H]2c3c(cc(C)c(OC)c3O)C[C@@H]([C@@H]1C#N)N2C(=O)OC(C)(C)C)OCO4 (stereo partly drawn) [Compound 194]	50.7 nM	50.7 nM	50.7 nM	50.7 nM	50.7 nM					
CCCCCCCC(=O)Oc1cc2c(cc1OC)[C@@]1(CS[C@@H]3c4c(OC(C)=O)c(C)c5c(c4[C@H](COC1=O)N1C3[C@H]3c4c(cc(C)c(OC)c4O)C[C@@H]([C@@H]1C#N)N3C(=O)OC(C)(C)C)OCO5)NCC2 (stereo partly drawn) [Compound 195]	10.2 nM	10.2 nM	10.2 nM	10.2 nM	10.2 nM					
CCCCCCCC(=O)Oc1cc2c(cc1OC)[C@@]1(CS[C@@H]3c4c(OC(C)=O)c(C)c5c(c4[C@H](COC1=O)N1C3[C@H]3c4c(cc(C)c(OC)c4OC(=O)CCCCCCC)C[C@@H]([C@@H]1C#N)N3C(=O)OC(C)(C)C)OCO5)NCC2 (stereo partly drawn) [Compound 196]	9020 nM	9020 nM	9020 nM	9020 nM	9020 nM					
CCCCCCCCCCCCCCCC(=O)Oc1cc2c(cc1OC)[C@@]1(CS[C@@H]3c4c(OC(C)=O)c(C)c5c(c4[C@H](COC1=O)N1C3[C@H]3c4c(cc(C)c(OC)c4O)C[C@@H]([C@@H]1C#N)N3C(=O)OC(C)(C)C)OCO5)NCC2 (stereo partly drawn) [Compound 197]	9130 nM	9130 nM	9130 nM	9130 nM	9130 nM					
CCCCCCCCCCCCCCCC(=O)Oc1cc2c(cc1OC)[C@@]1(CS[C@@H]3c4c(OC(C)=O)c(C)c5c(c4[C@H](COC1=O)N1C3[C@H]3c4c(cc(C)c(OC)c4OC(=O)CCCCCCCCCCCCCCC)C[C@@H]([C@@H]1C#N)N3C(=O)OC(C)(C)C)OCO5)NCC2 (stereo partly drawn) [Compound 198]	7500 nM	7500 nM	7500 nM	7500 nM	7500 nM					
COc1cc2c(cc1OC(C)=O)CCN[C@]21CS[C@@H]2c3c(OC(C)=O)c(C)c4c(c3[C@H](COC1=O)N1C2[C@@H]2N[C@@H](Cc3cc(C)c(OC)c(O)c32)[C@@H]1C#N)OCO4 (stereo partly drawn) [Compound 202]	0.125 nM	0.125 nM	0.125 nM	0.0625 nM	0.0625 nM					
CCCC(=O)Oc1cc2c(cc1OC)[C@@]1(CS[C@@H]3c4c(OC(C)=O)c(C)c5c(c4[C@H](COC1=O)N1C3[C@@H]3N[C@@H](Cc4cc(C)c(OC)c(O)c43)[C@@H]1C#N)OCO5)NCC2 (stereo partly drawn) [Compound 203]	0.121 nM	0.121 nM	0.121 nM	0.121 nM	0.121 nM					
COc1cc2c(cc1OC(=O)/C=C/c1ccccc1)CCN[C@]21CS[C@@H]2c3c(OC(C)=O)c(C)c4c(c3[C@H](COC1=O)N1C2[C@@H]2N[C@@H](Cc3cc(C)c(OC)c(O)c32)[C@@H]1C#N)OCO4 (stereo partly drawn) [Compound 204]	0.113 nM	0.113 nM	0.113 nM	0.113 nM	0.113 nM					
CCCCCCCC(=O)Oc1cc2c(cc1OC)[C@@]1(CS[C@@H]3c4c(OC(C)=O)c(C)c5c(c4[C@H](COC1=O)N1C3[C@@H]3N[C@@H](Cc4cc(C)c(OC)c(O)c43)[C@@H]1C#N)OCO5)NCC2 (stereo partly drawn) [Compound 205]	0.113 nM	0.113 nM	0.113 nM	0.113 nM	0.113 nM					
CCCCCCCC(=O)Oc1cc2c(cc1OC)[C@@]1(CS[C@@H]3c4c(OC(C)=O)c(C)c5c(c4[C@H](COC1=O)N1C3[C@@H]3N[C@@H](Cc4cc(C)c(OC)c(OC(=O)CCCCCCC)c43)[C@@H]1C#N)OCO5)NCC2 (stereo partly drawn) [Compound 206]	49.6 nM	49.6 nM	49.6 nM	49.6 nM	49.6 nM					
CCCCCCCCCCCCCCCC(=O)Oc1cc2c(cc1OC)[C@@]1(CS[C@@H]3c4c(OC(C)=O)c(C)c5c(c4[C@H](COC1=O)N1C3[C@@H]3N[C@@H](Cc4cc(C)c(OC)c(O)c43)[C@@H]1C#N)OCO5)NCC2 (stereo partly drawn) [Compound 207]	5.03 nM	5.03 nM	5.03 nM	5.03 nM	5.03 nM					
CCCCCCCCCCCCCCCC(=O)Oc1cc2c(cc1OC)[C@@]1(CS[C@@H]3c4c(OC(C)=O)c(C)c5c(c4[C@H](COC1=O)N1C3[C@@H]3N[C@@H](Cc4cc(C)c(OC)c(OC(=O)CCCCCCCCCCCCCCC)c43)[C@@H]1C#N)OCO5)NCC2 (stereo partly drawn) [Compound 208]	8110 nM	8110 nM	8110 nM	8110 nM	8110 nM					
